Data: the supplement of paper PMC5908809

Tests used:
[1] = system: normal NK cells expanded with K562-aAPC; test: drug sensitivity score (DSS) (DSS units); higher = more sensitive; extreme values may be limits of the assay; details: 72 h; IL-2 2.5 ng/mL
Experimental: (§1)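 Drug sensitivity and resistance testing on K562-aAPC-expanded normal NK cells: 5 concentrations (10-fold steps over a 10,000-fold range), 72 h at 37 °C, viability by CellTiter-Glo normalised to DMSO and benzethonium chloride controls; DSS from the fitted curve.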

[2] = system: normal NK cells expanded with K562-aAPC; test: percent inhibition of viability; higher = more inhibition; details: 72 h, IL-2 2.5 ng/mL
Experimental: as §1

SNK-6 (IL-2 2.5 ng/mL) [3] = test: as above; details: 72 h
NK-YS (IL-2 2.5 ng/mL) [4] = test: as above; details: 72 h
NK-92 (IL-2 2.5 ng/mL) [5] = test: as above; details: 72 h
KHYG-1 (IL-2 2.5 ng/mL) [6] = test: as above; details: 72 h
[7] = system: normal primary NK cells, pool 1 (3 donors) (IL-2 2.5 ng/mL); test: as above; details: 72 h
[8] = system: normal primary NK cells, pool 3 (3 donors) (IL-2 2.5 ng/mL); test: as above; details: 72 h
[9] = system: normal primary NK cells, pool 1 (3 donors), resting (IL-2 0 ng/mL); test: as above; details: 72 h
KAI3 (IL-2 2.5 ng/mL) [10] = test: as above; details: 72 h
[11] = system: normal primary NK cells, pool 2 (3 donors) (IL-2 2.5 ng/mL); test: as above; details: 72 h
DERL-7 (IL-2 2.5 ng/mL) [12] = test: as above; details: 72 h
IMC-1 (IL-2 20 ng/mL) [13] = test: as above; details: 72 h
NKL (IL-2 2.5 ng/mL) [14] = test: as above; details: 72 h
YT (IL-2 2.5 ng/mL) [15] = test: as above; details: 72 h
SNK-6 (IL-2 2.5 ng/mL) [16] = test: drug sensitivity score (DSS) (DSS units); higher = more sensitive; extreme values may be limits of the assay; details: 72 h
NK-YS (IL-2 2.5 ng/mL) [17] = test: as above; details: 72 h
NK-92 (IL-2 2.5 ng/mL) [18] = test: as above; details: 72 h
KHYG-1 (IL-2 2.5 ng/mL) [19] = test: as above; details: 72 h
[20] = system: normal primary NK cells, pool 1 (3 donors) (IL-2 2.5 ng/mL); test: as above; details: 72 h
[21] = system: normal primary NK cells, pool 3 (3 donors) (IL-2 2.5 ng/mL); test: as above; details: 72 h
[22] = system: normal primary NK cells, pool 1 (3 donors), resting (IL-2 0 ng/mL); test: as above; details: 72 h
KAI3 (IL-2 2.5 ng/mL) [23] = test: as above; details: 72 h
[24] = system: normal primary NK cells, pool 2 (3 donors) (IL-2 2.5 ng/mL); test: as above; details: 72 h
DERL-7 (IL-2 2.5 ng/mL) [25] = test: as above; details: 72 h
IMC-1 (IL-2 20 ng/mL) [26] = test: as above; details: 72 h
NKL (IL-2 2.5 ng/mL) [27] = test: as above; details: 72 h
YT (IL-2 2.5 ng/mL) [28] = test: as above; details: 72 h

CC1=C(/C=C/C(C)=C/C=C/C(C)=C/C(=O)O)C(C)(C)CCC1 [Tretinoin] (max concentration tested 10000 nM)
Details	drug sensitivity score
DERL-7 (IL-2 2.5 ng/mL) [25]	0
IMC-1 (IL-2 20 ng/mL) [26]	0
KAI3 (IL-2 2.5 ng/mL) [23]	0.68
KHYG-1 (IL-2 2.5 ng/mL) [19]	4.32
NK-92 (IL-2 2.5 ng/mL) [18]	0
NK-YS (IL-2 2.5 ng/mL) [17]	2.28
NKL (IL-2 2.5 ng/mL) [27]	4.28
SNK-6 (IL-2 2.5 ng/mL) [16]	0
YT (IL-2 2.5 ng/mL) [28]	0
[1]	0
[20]	0
[21]	0
[22]	3.02
[24]	0

percent inhibition of viability [%]
Details	1 nM	10 nM	100 nM	1000 nM	10000 nM
DERL-7 (IL-2 2.5 ng/mL) [12]	0.02	-9.97	-17.2	-1.93	1.55
IMC-1 (IL-2 20 ng/mL) [13]	-5.65	-8.65	-8.92	-15.6	-11.9
KAI3 (IL-2 2.5 ng/mL) [10]	-2.48	-3.65	-1.2	3.75	16
KHYG-1 (IL-2 2.5 ng/mL) [6]	-3.1	-0.61	11.5	20.8	33
NK-92 (IL-2 2.5 ng/mL) [5]	-0.77	-12.9	-9.35	0.15	-0.14
NK-YS (IL-2 2.5 ng/mL) [4]	-3.42	-0.23	9.86	11.1	28.9
NKL (IL-2 2.5 ng/mL) [14]	-12.8	-0.36	-1.84	17.5	39.7
SNK-6 (IL-2 2.5 ng/mL) [3]	-9.38	11.7	19.6	-4.95	10.5
YT (IL-2 2.5 ng/mL) [15]	-1.46	-2.61	-3.8	-1.99	3.09
[2]	-4.58	-6.04	-10.1	-14.2	-11.4
[7]	-4.29	-17	-11.3	-4.32	10.6
[8]	-4.65	-2.78	-10.4	-7.74	-8.57
[9]	-8.15	-5.96	-18.7	18.4	26.4
[11]	-8.71	-3.05	-10.2	-13.1	1.08

Cc1cc(Nc2cc(CN3CCOCC3)c3nc(C)c(Cc4ccc(Cl)cc4F)n3n2)n[nH]1 [Gandotinib] (max concentration tested 10000 nM)
Details	drug sensitivity score
DERL-7 (IL-2 2.5 ng/mL) [25]	21
IMC-1 (IL-2 20 ng/mL) [26]	10.4
KAI3 (IL-2 2.5 ng/mL) [23]	22
KHYG-1 (IL-2 2.5 ng/mL) [19]	23.9
NK-92 (IL-2 2.5 ng/mL) [18]	18.3
NK-YS (IL-2 2.5 ng/mL) [17]	17.1
NKL (IL-2 2.5 ng/mL) [27]	20.4
SNK-6 (IL-2 2.5 ng/mL) [16]	18.8
YT (IL-2 2.5 ng/mL) [28]	15
[1]	20
[20]	13
[21]	8.97
[22]	0.18
[24]	11.1

percent inhibition of viability [%]
Details	1 nM	10 nM	100 nM	1000 nM	10000 nM
DERL-7 (IL-2 2.5 ng/mL) [12]	2.64	12.5	31.3	96.2	100
IMC-1 (IL-2 20 ng/mL) [13]	-4.23	-6.96	-22.2	36.1	99.6
KAI3 (IL-2 2.5 ng/mL) [10]	8.43	12.9	45.1	92.9	82.2
KHYG-1 (IL-2 2.5 ng/mL) [6]	0.26	6.43	45.7	106	95.9
NK-92 (IL-2 2.5 ng/mL) [5]	4.87	11.2	20.5	86.5	96.2
NK-YS (IL-2 2.5 ng/mL) [4]	1.47	2.64	22.9	77.5	93.6
NKL (IL-2 2.5 ng/mL) [14]	-9.53	-6.03	52.5	77.8	71.9
SNK-6 (IL-2 2.5 ng/mL) [3]	6.62	7.51	9.98	95	87.1
YT (IL-2 2.5 ng/mL) [15]	1.95	-0.29	5.49	77.5	94.8
[2]	-0.65	3.87	25.1	89.6	70.5
[7]	-11.8	-7.74	18.1	58.3	79.4
[8]	-10.9	-0.67	2.59	43.9	65.9
[9]	-20.1	-7.1	2.98	-45.4	20.2
[11]	-11.3	-5.04	11.2	50.9	52.6

COc1cccc2c1C(=O)c1c(O)c3c(c(O)c1C2=O)C[C@@](O)(C(C)=O)C[C@@H]3O[C@H]1C[C@H](N)[C@H](O)[C@H](C)O1 [Daunorubicin] (max concentration tested 1000 nM)
Details	drug sensitivity score
DERL-7 (IL-2 2.5 ng/mL) [25]	19.7
IMC-1 (IL-2 20 ng/mL) [26]	20.7
KAI3 (IL-2 2.5 ng/mL) [23]	14.2
KHYG-1 (IL-2 2.5 ng/mL) [19]	16.9
NK-92 (IL-2 2.5 ng/mL) [18]	16
NK-YS (IL-2 2.5 ng/mL) [17]	17.3
NKL (IL-2 2.5 ng/mL) [27]	29.4
SNK-6 (IL-2 2.5 ng/mL) [16]	17.1
YT (IL-2 2.5 ng/mL) [28]	16.6
[1]	14.4
[20]	19.6
[21]	16.1
[22]	20.5
[24]	19.2

percent inhibition of viability [%]
Details	0.1 nM	1 nM	10 nM	100 nM	1000 nM
DERL-7 (IL-2 2.5 ng/mL) [12]	-3.3	-4.68	21.2	92.8	101
IMC-1 (IL-2 20 ng/mL) [13]	-9.54	-10.2	16.5	98.7	101
KAI3 (IL-2 2.5 ng/mL) [10]	-5.78	-13.2	19.7	61.9	106
KHYG-1 (IL-2 2.5 ng/mL) [6]	1.81	-4.06	-1.19	93.7	109
NK-92 (IL-2 2.5 ng/mL) [5]	-16.2	-14.1	-9.07	89.9	109
NK-YS (IL-2 2.5 ng/mL) [4]	-2.31	-8.67	23.9	77.1	106
NKL (IL-2 2.5 ng/mL) [14]	-2.22	6.13	88.5	104	109
SNK-6 (IL-2 2.5 ng/mL) [3]	-12.6	-10.6	-5.61	97.8	94.5
YT (IL-2 2.5 ng/mL) [15]	-3.13	-9.89	-7.78	93.8	110
[2]	-6.49	-5.27	0.18	77.3	101
[7]	-16.8	-3.87	17.1	94.1	98.6
[8]	-11.8	-3.78	7.93	81.6	99.9
[9]	-16.4	-27.6	23.2	91.1	94
[11]	-11.1	-1.9	13	92.7	94.4

CCCOc1ccn2c(C(C)=O)cc(-c3ccccc3S(C)(=O)=O)c2c1 [GSK2801] (max concentration tested 10000 nM)
Details	drug sensitivity score
DERL-7 (IL-2 2.5 ng/mL) [25]	1.67
IMC-1 (IL-2 20 ng/mL) [26]	0
KAI3 (IL-2 2.5 ng/mL) [23]	0.24
KHYG-1 (IL-2 2.5 ng/mL) [19]	0
NK-92 (IL-2 2.5 ng/mL) [18]	0
NK-YS (IL-2 2.5 ng/mL) [17]	0.07
NKL (IL-2 2.5 ng/mL) [27]	0.73
SNK-6 (IL-2 2.5 ng/mL) [16]	0.29
YT (IL-2 2.5 ng/mL) [28]	0
[1]	0
[20]	0.69
[21]	0
[22]	3.45
[24]	0.12

percent inhibition of viability [%]
Details	1 nM	10 nM	100 nM	1000 nM	10000 nM
DERL-7 (IL-2 2.5 ng/mL) [12]	3.66	0.68	6.46	3.78	26.7
IMC-1 (IL-2 20 ng/mL) [13]	-5.58	-4	-5.67	-6.64	-7.6
KAI3 (IL-2 2.5 ng/mL) [10]	-0.66	1.6	3.26	1.19	13.8
KHYG-1 (IL-2 2.5 ng/mL) [6]	-6.23	-1.14	-4.5	-0.03	3.02
NK-92 (IL-2 2.5 ng/mL) [5]	13.2	-11.5	-4.85	-3.31	1.17
NK-YS (IL-2 2.5 ng/mL) [4]	-2.46	-2.16	-2.35	-0.19	12.5
NKL (IL-2 2.5 ng/mL) [14]	-3.96	-3.81	7.18	-1.4	23.3
SNK-6 (IL-2 2.5 ng/mL) [3]	9.8	1.5	0.45	0.35	15.4
YT (IL-2 2.5 ng/mL) [15]	-2.89	-0.79	-3.2	1.49	5.33
[2]	0.95	-8.4	-3.92	-5.08	3.93
[7]	-8.08	-8.31	-8.28	1.69	18.7
[8]	-5.87	2.4	-5.15	-6.31	4.35
[9]	-9.69	-17.6	-10.8	10.7	38
[11]	-4.35	-4.55	-1.61	-2.13	14.3
